The values below come from US10471149B2 (Insmed Incorporated, priority 2012, dated 2019).

The conditions of series [1]: cited from earlier work.
For series [2] the following is noted: animal models of meningitis caused by pneumococci; cited from earlier work.
The nature of series [3]: Chemical stability of vancomycin in aqueous solution (CDP-I formation by HPLC): effect of pH, organic bases, ethanol, ammonium ions. The note with it: 4° C. (FIG. 7); high concentration and low pH.
Description: Selected samples were also incubated at a lower concentration (20 mg/mL).
In buffered samples, an appropriate amount of buffer or amino acid additive was added. The pH values were chosen to cover the range between the lowest and highest acceptable values of pH, including pH 5.0 for lipid stability reasons and pH 6.5, above which degradation is expected to be impractically fast.
The concentration of 200 mg/mL was chosen to mimic what a high intra-liposomal might be but was no higher than this for practical handling purposes. All samples were liquid solutions upon preparation.
For comparison, lower concentration solutions (20 mg/mL) also were prepared by diluting 200 mg/mL samples 10-fold in water. Samples were incubated at 4° C. (in refrigerator) and at ambient temperature (about 23° C., which is referred herein to as “room temperature” or “RT”).

Like-named read-outs stand apart in the source and are kept apart here.

In the case of `CN[C@H]1C(=O)N[C@@H]2Cc3ccc(cc3)Oc3cc4cc(c3O[C@@H]3O[C@H](C(=O)O)[C@@H](O)[C@H](O)[C@H]3NC(=O)CCCCCCCCC(C)C)Oc3ccc(cc3Cl)[C@@H](O)[C@@H]3NC(=O)[C@H](NC(=O)[C@@H]4NC(=O)[C@@H](NC2=O)c2cc(cc(O)c2Cl)Oc2cc1ccc2O)c1ccc(O)c(c1)-c1c(O[C@H]2O[C@H](CO)[C@@H](O)[C@H](O)[C@@H]2O)cc(O)cc1[C@@H](C(=O)NCCCN(C)C)NC3=O` [Dalbavanc in, Dalbavancin], in series [1] (in vivo), the exposure (AUC) is 27103 µg·h/mL, the Protein binding is given as 98% and the Vd is recorded as 0.11 L/kg.
Consider `CN[C@H](CC(C)C)C(=O)N[C@H]1C(=O)N[C@@H](CC(N)=O)C(=O)N[C@H]2C(=O)N[C@H]3C(=O)N[C@H](C(=O)N[C@H](C(=O)O)c4cc(O)cc(O)c4-c4cc3ccc4O)[C@H](O[C@H]3C[C@](C)(N)[C@@H](O)[C@H](C)O3)c3ccc(c(Cl)c3)Oc3cc2cc(c3O[C@@H]2O[C@H](CO)[C@@H](O)[C@H](O)[C@H]2O[C@H]2C[C@](C)(NCc3ccc(-c4ccc(Cl)cc4)cc3)[C@@H](O)[C@H](C)O2)Oc2ccc(cc2Cl)[C@H]1O` [Oritavancin], for which, in series [2], the “concentration in cerebrospinal fluid, % of the serum level” value is reported as 5%. Besides, in series [1], the AUC is 152 µg·h/mL, the Protein binding is on record as 90% and the Terminal half-life is reported as 360 h.
For `CCCCCCCCCCNCCN[C@@]1(C)C[C@H](O[C@H]2[C@H](Oc3c4cc5cc3Oc3ccc(cc3Cl)[C@@H](O)[C@@H](NC(=O)[C@@H](CC(C)C)NC)C(=O)N[C@@H](CC(N)=O)C(=O)N[C@H]5C(=O)N[C@H]3C(=O)N[C@H](C(=O)N[C@H](C(=O)O)c5cc(O)c(CNCP(=O)(O)O)c(O)c5-c5cc3ccc5O)[C@H](O)c3ccc(c(Cl)c3)O4)O[C@H](CO)[C@@H](O)[C@@H]2O)O[C@@H](C)[C@H]1O` [Telavancin], in series [1], the AUC was 600 µg·h/mL, the Protein binding is reported as 90-93% and the Terminal half-life is recorded as 7 h.
Take `CN[C@H](CC(C)C)C(=O)N[C@H]1C(=O)N[C@@H](CC(N)=O)C(=O)N[C@H]2C(=O)N[C@H]3C(=O)N[C@H](C(=O)N[C@H](C(=O)O)c4cc(O)cc(O)c4-c4cc3ccc4O)[C@H](O)c3ccc(c(Cl)c3)Oc3cc2cc(c3O[C@@H]2O[C@H](CO)[C@@H](O)[C@H](O)[C@H]2O[C@H]2C[C@](C)(N)[C@H](O)[C@H](C)O2)Oc2ccc(cc2Cl)[C@H]1O` [Vancomycin]: in series [3], the degradation rate result is listed as “about 0.1 % per week”. For the same compound, in series [1], the AUC was 260 µg·h/mL, the Protein binding is on record as 10-55%, the Terminal half-life was 4 to 8 h and the Vd is 0.3 L/kg.
Teicoplanin: in series [1], the AUC was 550 µg·h/mL, the Protein binding is recorded as 90%, the Terminal half-life was 83 to 168 h and the Vd was 0.9 to 1.6 L/kg.

In general, AUC refers to the area under the concentration-time curve, a measure of exposure. The term Vd denotes the apparent volume that relates the amount in the body to the concentration in plasma or blood.
